These results are taken from patent US20250186433A1, “ACSS2 INHIBITORS AND METHODS OF USE THEREOF” (EpiVario, Inc., priority 2017, published 2025).

Bounds are passed on as bounds.

Experiment [1] deals with T1, ACSS2 (Homo sapiens, UniProt Q9NR19). The experiment in a line: cell-based.
Experimental: The cellular activity of ACSS2 was based on tracing the incorporation of carbons from ^13C-Acetate into fatty-acids.
BT474/MDA-MB-468 cells growing in DMEM+25 mM D-glucose+1 mM sodium pyruvate+10% FBS+2 mM glutamine were plated in 12-well plates at 0.4×10^6 cells/well. The cells were then incubated at CO2 incubator for 24 hrs at hypoxic conditions (1% O2) before treated with compounds. At day 2, the medium was replaced to DMEM medium containing 15 mM Glucose, 1 mM Pyruvate, 0.65 mM Glutamine, 1% Dialyzed serum, 3.5 ug/ml Biotin, 0.2 mM ^13C-Acetate and various concentrations of the compounds. The cells were incubated for 5 hours at CO2 incubator in hypoxic conditions (1% O2). At the end of the 5 hours' incubation, the cells were washed twice with cold PBS, harvested in 1 ml PBS and transfer into V-shaped HPLC glass vials and centrifuge for 10 min at 600 g at 4 C. The supernatant was removed, and the cells' pellets were stored at −80° C. until taken for saponification.
The cells pellets were resuspended with 0.5 ml of the 90% Methanol, 10% H2O, 0.3M NaOH mixture and incubated at 80° C. for 60 min. Following the incubation, 50 μl formic acid and 0.4 ml hexane were added and the mixture was vortexed for 2 minutes. The vials were left few minutes for phases separation and then 200 μl of the top hexane phase extracted to a new glass vial. The hexane was dried under nitrogen and reconstituted in 100 μl of Methanol: Acetonitrile 5:3 mixture. The solution transferred to Eppendorf tubes, spun down at 17000G for 20 min and transferred to LC-MS vials.
The analysis was performed with Thermo Q Exactive mass spectrometer with HESI probe and Dionex Ultimate 3000 UHPLC system. The separations were performed on Phenomenex Kintex 2.6u XB-C18 100A 150×2.10 mm column by injecting 5 ul of each sample. The chromatography started with a linear gradient from 85% to 100% of organic solvent (Methanol: Acetonitrile 1:1) versus 10 mM Ammonium Acetate buffer pH 4.7 for 3.5 minutes, followed by 4.5 minutes of isocratic 100% organic solvent and then 3 minutes of isocratic initial conditions, at a flow rate of 0.3 ul/min. The MS source conditions that were used: capillary temperature 325° C., sheath flow 25, aux flow 15, spray voltage 3.8 kV, aux temperature 300° C. The data collected from Negative ion mode at resolution of 70000 at Full-MS mode in 75-1000 m/z range.
The analysis of ^13C acetate incorporation into fatty acids (palmitate, myristate and stearate) performed on TraceFinder 3.2.512.0. The negative control areas and ^13C isotopic theoretical natural abundance were subtracted from the samples areas. Total ^13C incorporation for each fatty-acid (palmitate, myristate and stearate) was calculated and presented as percentage of the total amount.
Experiment [2] has as its target T2, AACS (Homo sapiens, UniProt Q86V21).
T2 construct: purchased Cusabio, China
T2 sequence (Q86V21 1-672): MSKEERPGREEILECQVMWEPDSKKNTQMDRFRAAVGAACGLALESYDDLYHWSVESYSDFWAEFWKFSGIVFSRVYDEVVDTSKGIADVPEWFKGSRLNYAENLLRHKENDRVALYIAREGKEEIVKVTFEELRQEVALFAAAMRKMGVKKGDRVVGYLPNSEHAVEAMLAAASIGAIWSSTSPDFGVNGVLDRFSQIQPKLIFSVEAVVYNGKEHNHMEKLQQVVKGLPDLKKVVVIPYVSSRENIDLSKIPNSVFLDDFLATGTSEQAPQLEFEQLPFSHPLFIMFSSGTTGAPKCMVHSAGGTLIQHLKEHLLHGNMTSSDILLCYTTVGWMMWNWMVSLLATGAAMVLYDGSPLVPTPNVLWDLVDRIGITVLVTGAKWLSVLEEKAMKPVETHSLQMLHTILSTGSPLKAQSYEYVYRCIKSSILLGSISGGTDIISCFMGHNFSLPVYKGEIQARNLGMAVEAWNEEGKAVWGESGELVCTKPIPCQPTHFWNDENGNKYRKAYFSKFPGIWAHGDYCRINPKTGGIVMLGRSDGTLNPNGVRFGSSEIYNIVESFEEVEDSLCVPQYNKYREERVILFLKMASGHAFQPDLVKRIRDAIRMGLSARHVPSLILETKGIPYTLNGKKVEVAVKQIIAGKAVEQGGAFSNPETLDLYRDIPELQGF
In words: Acyl-CoA synthetases selectivity panel: AACS. Format: biochemical. The conditions noted are these: human recombinant protein, substrate acetoacetyl, AMP readout by HPLC; read-out: HPLC based activity assays IC50 (UM) AACS. From the text:
(§1) The biochemical assays for testing the selectivity of the compounds according to this invention, were done using human recombinant proteins (Cusabio, China). The readout of the assays was AMP levels, the […] of the reactions, by HPLC method. The acyl substrates (Sigma-Aldrich) of the assays were as followed: ACSS1/ACSS2—Acetate, AACS-Acetoacetyl, ACSF2—Octanoate and ACSL5—Palmitate. The protein in this panel include ACSS1, the closest homolog of ACSS2, in addition to representative short/medium/long chain acyl-CoA syntatases.

Experiment [3] addresses T1, ACSS2. In words: Acyl-CoA synthetases selectivity panel: ACSS2. Type of experiment: biochemical. Set-up: purchased Cusabio, China. The following applies: human recombinant protein, substrate acetate, AMP readout by HPLC; read-out: HPLC based activity assays IC50 (UM) ACSS2.
Text: as §1

Experiment [4] addresses T3, ACSF2 (Homo sapiens, UniProt Q96CM8).
T3 construct: purchased Cusabio, China
T3 sequence (Q96CM8 42-615): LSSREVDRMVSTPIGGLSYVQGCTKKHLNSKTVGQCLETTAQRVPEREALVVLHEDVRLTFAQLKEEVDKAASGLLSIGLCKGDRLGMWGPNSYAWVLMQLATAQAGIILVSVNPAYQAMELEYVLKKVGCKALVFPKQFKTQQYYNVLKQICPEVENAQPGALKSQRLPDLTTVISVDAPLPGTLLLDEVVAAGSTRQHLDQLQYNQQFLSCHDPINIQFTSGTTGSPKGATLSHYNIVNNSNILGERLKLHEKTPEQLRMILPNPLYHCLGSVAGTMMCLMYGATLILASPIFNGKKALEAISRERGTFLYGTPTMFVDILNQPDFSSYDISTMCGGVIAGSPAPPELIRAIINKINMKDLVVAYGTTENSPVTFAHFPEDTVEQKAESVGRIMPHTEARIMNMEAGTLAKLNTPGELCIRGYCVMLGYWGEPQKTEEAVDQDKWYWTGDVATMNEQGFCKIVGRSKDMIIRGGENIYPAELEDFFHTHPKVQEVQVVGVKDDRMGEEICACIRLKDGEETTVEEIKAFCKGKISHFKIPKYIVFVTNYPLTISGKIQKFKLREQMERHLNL
The experiment in a line: Acyl-CoA synthetases selectivity panel: ACSF2. Format: biochemical. The following applies: human recombinant protein, substrate octanoate, AMP readout by HPLC; read-out: HPLC based activity assays IC50 (UM) ACSF2.
Text: as §1

In experiment [5] the target is T4, ACSL5 (Homo sapiens, UniProt Q9ULC5).
T4 construct: purchased Cusabio, China
T4 sequence (Q9ULC5 1-683): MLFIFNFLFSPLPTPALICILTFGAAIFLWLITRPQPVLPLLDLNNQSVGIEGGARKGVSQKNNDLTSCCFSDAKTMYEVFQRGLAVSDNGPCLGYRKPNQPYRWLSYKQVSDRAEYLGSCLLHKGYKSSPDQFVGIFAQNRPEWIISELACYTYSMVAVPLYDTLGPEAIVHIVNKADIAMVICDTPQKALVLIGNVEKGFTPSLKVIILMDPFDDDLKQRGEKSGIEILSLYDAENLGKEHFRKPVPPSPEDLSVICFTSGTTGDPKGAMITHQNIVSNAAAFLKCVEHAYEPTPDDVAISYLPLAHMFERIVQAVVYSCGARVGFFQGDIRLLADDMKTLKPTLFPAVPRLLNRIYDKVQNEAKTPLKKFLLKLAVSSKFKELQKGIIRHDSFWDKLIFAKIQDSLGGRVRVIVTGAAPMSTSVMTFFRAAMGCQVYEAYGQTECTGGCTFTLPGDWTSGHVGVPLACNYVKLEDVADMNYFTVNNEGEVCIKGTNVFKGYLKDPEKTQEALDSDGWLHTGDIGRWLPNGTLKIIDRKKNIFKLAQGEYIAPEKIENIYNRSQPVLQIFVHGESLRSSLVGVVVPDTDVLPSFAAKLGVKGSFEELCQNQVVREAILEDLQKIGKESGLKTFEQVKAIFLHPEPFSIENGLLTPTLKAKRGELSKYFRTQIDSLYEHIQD
In words: Acyl-CoA synthetases selectivity panel: ACSL5. Format: biochemical. The conditions noted are these: human recombinant protein, substrate palmitate, AMP readout by HPLC; read-out: HPLC based activity assays IC50 (UM) ACSL5.
Text: as §1

Experiment [6] concerns the target T5, ACSS1 (Homo sapiens, UniProt Q9NUB1).
T5 construct: purchased Cusabio, China
T5 sequence (Q9NUB1 38-689): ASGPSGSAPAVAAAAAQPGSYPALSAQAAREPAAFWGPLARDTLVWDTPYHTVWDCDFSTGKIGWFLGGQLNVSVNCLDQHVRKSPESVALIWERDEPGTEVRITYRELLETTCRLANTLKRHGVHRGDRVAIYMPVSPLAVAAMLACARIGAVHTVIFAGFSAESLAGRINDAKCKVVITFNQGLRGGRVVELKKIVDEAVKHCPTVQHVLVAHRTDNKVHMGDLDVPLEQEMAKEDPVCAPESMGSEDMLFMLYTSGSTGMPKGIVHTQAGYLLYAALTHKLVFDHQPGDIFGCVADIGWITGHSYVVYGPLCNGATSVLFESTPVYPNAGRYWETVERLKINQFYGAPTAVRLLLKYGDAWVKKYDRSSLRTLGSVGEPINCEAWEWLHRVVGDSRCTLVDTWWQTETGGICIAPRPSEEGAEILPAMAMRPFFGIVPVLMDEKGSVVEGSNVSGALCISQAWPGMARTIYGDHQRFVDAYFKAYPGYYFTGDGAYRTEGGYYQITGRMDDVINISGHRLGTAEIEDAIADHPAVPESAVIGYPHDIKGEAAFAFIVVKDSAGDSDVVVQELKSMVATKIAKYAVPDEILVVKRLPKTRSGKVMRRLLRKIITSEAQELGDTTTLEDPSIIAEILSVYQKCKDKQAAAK
In words: Acyl-CoA synthetases selectivity panel: ACSS1. Type of experiment: biochemical. The following applies: human recombinant protein, substrate acetate, AMP readout by HPLC; read-out: HPLC based activity assays IC50 (UM) ACSS1.
Text: as §1

Experiment [7] deals with T6, ACSS2 (Mus musculus, UniProt Q9QXG4).
T6 construct: from tissue; host or cells: whole animal, C57BL/6J mice; plasma palmitate read out
In words: PK-PD study: inhibition of 13C incorporation into fatty-acid (palmitate) in vivo. The conditions noted are these: C57BL/6J mice, 50 mg/kg IP, 13C-ETOH PO at 1 h, plasma at 3 h, read-out: inhibition of 13C-Acetate incorporation into fatty-acids (palmitate). The protocol:
Overnight fasted Female C57BL/6J mice (3n/group) were dosed at time=0 h with the indicated compound at 50 mg/kg IP (vehicle: 20% Solutol, 80% 0.2M Phosphate buffer pH 7.0). At time 1 h, 13C-ETOH (2.25 gr/kg 13C-ETOH dissolved in saline to a total volume of 10 ml/kg) were administrated by PO. At time 3 h plasma samples were taken for Fatty-acid analysis by Mass-spectrometry. The incorporation of ^13C into palmitate was done by Mass-spectrometry after saponification of the samples and the percent incorporation of ^13C was calculated.

In experiment [8] the test system is MDA-MB-468 breast cancer cells xenograft. The experiment in a line: In-vivo efficacy study in MDA-MB-468 breast cancer cells xenograft. The following applies: 100 mg/kg orally once daily; female NMRI nude mice. The protocol:
An in-vivo efficacy study was carried out by Charles-River Laboratories at the Freiburg, Germany site.
Tumor fragments from Breast cancer cell line MDA-MB-468 passaged as subcutaneous xenograft were subcutaneously implanted into female NMRI nude mice (Crl:NMRI-Foxnlnu). The animals were randomized into groups (n=10) when tumors volume reached 50 to 250 mm3. […] Body weights and tumor volume [mm3] by caliper were measured twice weekly.

A word on the IC50: it is the concentration at which inhibition is half-maximal.

T1 sequence (Q9NR19 whole entry): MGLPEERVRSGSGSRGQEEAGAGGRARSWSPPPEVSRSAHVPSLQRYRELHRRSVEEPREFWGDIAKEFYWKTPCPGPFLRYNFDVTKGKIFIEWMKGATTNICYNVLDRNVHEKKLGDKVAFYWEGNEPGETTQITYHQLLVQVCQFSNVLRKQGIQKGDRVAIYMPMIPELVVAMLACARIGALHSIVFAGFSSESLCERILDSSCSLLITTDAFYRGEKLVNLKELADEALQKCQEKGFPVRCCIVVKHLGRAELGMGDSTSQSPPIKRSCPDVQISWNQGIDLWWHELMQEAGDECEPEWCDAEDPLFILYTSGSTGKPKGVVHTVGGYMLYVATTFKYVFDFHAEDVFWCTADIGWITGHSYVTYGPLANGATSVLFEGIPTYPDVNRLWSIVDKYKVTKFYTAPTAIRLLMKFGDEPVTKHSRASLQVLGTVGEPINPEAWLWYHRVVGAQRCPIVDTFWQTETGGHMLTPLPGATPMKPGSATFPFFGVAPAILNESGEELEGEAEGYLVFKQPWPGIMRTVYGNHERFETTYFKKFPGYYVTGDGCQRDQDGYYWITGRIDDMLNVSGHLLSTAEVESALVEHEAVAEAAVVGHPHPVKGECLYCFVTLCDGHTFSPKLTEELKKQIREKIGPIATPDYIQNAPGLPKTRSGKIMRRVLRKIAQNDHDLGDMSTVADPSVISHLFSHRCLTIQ
T6 sequence (Q9QXG4 whole entry): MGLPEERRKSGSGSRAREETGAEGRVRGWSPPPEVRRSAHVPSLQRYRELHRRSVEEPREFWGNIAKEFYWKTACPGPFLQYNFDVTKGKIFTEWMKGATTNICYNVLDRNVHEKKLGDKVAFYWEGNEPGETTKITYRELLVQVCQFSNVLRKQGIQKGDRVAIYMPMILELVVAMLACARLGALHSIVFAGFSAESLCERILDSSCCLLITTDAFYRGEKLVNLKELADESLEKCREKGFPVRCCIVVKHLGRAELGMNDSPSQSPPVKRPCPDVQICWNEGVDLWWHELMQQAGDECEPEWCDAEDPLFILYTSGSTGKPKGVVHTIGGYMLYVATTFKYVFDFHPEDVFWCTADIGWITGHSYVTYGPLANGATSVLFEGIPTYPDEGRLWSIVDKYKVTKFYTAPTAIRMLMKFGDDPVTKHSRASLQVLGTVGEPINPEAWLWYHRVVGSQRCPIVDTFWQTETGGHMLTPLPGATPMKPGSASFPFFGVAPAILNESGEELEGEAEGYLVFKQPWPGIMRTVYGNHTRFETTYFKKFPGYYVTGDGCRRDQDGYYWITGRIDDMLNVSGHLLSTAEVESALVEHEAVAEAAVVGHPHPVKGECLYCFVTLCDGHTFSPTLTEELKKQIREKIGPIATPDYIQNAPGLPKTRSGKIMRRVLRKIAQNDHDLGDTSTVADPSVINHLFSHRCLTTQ

The molecule `COC(=O)c1cccc(N2N=C(C)C(C(=O)Nc3cccc(-c4ncc[nH]4)c3)C2=O)c1` (stereo not drawn) [compound 167, Methyl 3-(4-((3-(1H-imidazol-2-yl)phenyl)carbamoyl)-3-methyl-5-oxo-4,5-dihydro-1H-pyrazol-1-yl)benzoate] showed a half-maximal inhibitory concentration (IC50) in experiment [1] of 0.1 to 1 µM.
Still for that read-out and setting: the result for `COC(=O)c1cccc(N2N=C(C)C(C(=O)Nc3cccc(-c4cnccn4)c3)C2=O)c1` (stereo not drawn) [compound 164] reads 0.1 to 1 µM.
Consider `COC(=O)c1cccc(N2N=C(C)C(C(=O)Nc3cccc(-c4ccco4)c3)C2=O)c1` (stereo not drawn) [compound 269, methyl 3-(4-((3-(furan-2-yl)phenyl)carbamoyl)-3-methyl-5-oxo-4,5-dihydro-1H-pyrazol-1-yl)benzoate], for which the IC50 is 19 µM in experiment [2]; less than 0.001 µM in experiment [3]; 28 µM in experiment [4]; 45 µM in experiment [5]; 10 to 100 µM in experiment [6].
The molecule `CC(=O)Cc1cccc(NC(=O)C2C(=O)N(c3ccccc3)N=C2C)c1` (stereo not drawn) [compound 145] displayed an IC50 in experiment [1] of 0.1 to 1 µM.
With `COc1ccc(N2N=C(C)C(C(=O)Nc3cccc(-c4ccco4)c3)C2=O)cc1` (stereo not drawn) [compound 266, N-(3-(furan-2-yl)phenyl)-1-(4-methoxyphenyl)-3-methyl-5-oxo-4,5-dihydro-1H-pyrazole-4-carboxamide], the IC50 in experiment [2] was 64 µM; in experiment [3] it was less than 0.001 µM; in experiment [4], 51 µM; in experiment [5], 35 µM; in experiment [6], 10 to 100 µM.
In experiment [1], `CC1=NN(c2cccc(C(F)(F)F)c2)C(=O)C1C(=O)Nc1cccc(-c2cnccn2)c1` (stereo not drawn) [compound 166] displayed an IC50 greater than 1 µM.
With `CC1=NN(c2ccc(C(F)(F)F)cc2)C(=O)C1C(=O)Nc1cccc(C(C)(F)F)c1` (stereo not drawn) [compound 264, N-(3-(1,1-difluoroethyl)phenyl)-3-methyl-5-oxo-1-(4-(trifluoromethyl)phenyl)-4,5-dihydro-1H-pyrazole-4-carboxamide], the IC50 in experiment [2] was 52 µM; in experiment [3] it was 0.001 to 0.01 µM; in experiment [4] it was 43 µM; in experiment [5], 115 µM; in experiment [6] it was 1 to 10 µM.
For `CC1=NN(c2ccc(OC(F)F)c(-c3cnccn3)c2)C(=O)C1C(=O)Nc1cccc(C(C)(F)F)c1` (stereo not drawn) [compound 328, N-[3-(1,1-difluoroethyl)phenyl]-1-[4-(difluoromethoxy)-3-pyrazin-2-yl-phenyl]-3-methyl-5-oxo-4H-pyrazole-4-carboxamide], the inhibition at 50 mg/kg in experiment [7] stood at 87%.
Regarding `CC1=NN(c2ccc(OC(F)(F)F)cc2)C(=O)C1C(=O)Nc1cc(C(C)(F)F)cs1` (stereo not drawn) [compound 296, N-(4-(1,1-difluoroethyl)thiophen-2-yl)-3-methyl-5-oxo-1-(4-(trifluoromethoxy)phenyl)-4,5-dihydro-1H-pyrazole-4-carboxamide], the “tumor growth in MDA-MB-468 xenograft model” value in experiment [8] was “inhibits tumor growth”.
In experiment [1], `CC1=NN(c2ccccc2)C(=O)C1C(=O)Nc1cccc(C(=O)N(C)C)c1` (stereo not drawn) [compound 220] registered an IC50 greater than 1 µM.
Take `COc1ccc(N2N=C(C)C(C(=O)Nc3cccc(C(C)(F)F)c3)C2=O)cn1` (stereo not drawn) [compound 242, N-(3-(1,1-difluoroethyl)phenyl)-1-(6-methoxypyridin-3-yl)-3-methyl-5-oxo-4,5-dihydro-1H-pyrazole-4-carboxamide]: the inhibition at 50 mg/kg in experiment [7] is 84%.
As for `CC1=NN(c2ccccc2)C(=O)C1C(=O)Nc1cccc(-c2ccco2)c1` (stereo not drawn) [compound 108], the IC50 in experiment [2] is 84 µM; in experiment [3], less than 0.001 µM; in experiment [4] it was 36 µM; in experiment [5], 76 µM; in experiment [6], 10 to 100 µM.
For `CC1=NN(c2ccccc2)C(=O)C1C(=O)Nc1cccc(C(C)(F)F)c1` (stereo not drawn) [compound 141], the IC50 is 149 µM in experiment [2]; 0.001 to 0.01 µM in experiment [3]; 160 µM in experiment [4]; greater than 100 µM in experiment [5]; 10 to 100 µM in experiment [6].
